This passage reports IC50 results from US11752138B2 (VANDERBILT UNIVERSITY, priority 2020, dated 2023).

A value given as a limit tells only on which side of the number the result lay.

For the experiment, the target named is Human LDHA (Homo sapiens (Human), UniProt P00338). In words: human LDHA primary biochemical assay (Example 1). The following applies: biochemical LDHA inhibitory activity, assay of Example 1. From the text: This example describes a human LDHA primary biochemical assay employed in the characterization of a compound of Formula I in an embodiment of the dislcosure.
Test compounds were placed in a Greiner Bio-One (Monroe, N.C.) 1536-well black solid bottom assay plate. 200 millimolar (mM) Tris HCl, pH 7.4, 100 micromolar (μM) EDTA and 0.01% TWEEN-20™, final concentration, was used as the assay buffer. The LDHA reagent was 2 nanomolar (nM) Human LDHA (Meridian Life Science, Inc., Memphis, Tenn.), final concentration, in assay buffer. The substrate reagent was 0.06 mM NADH and 0.2 mM sodium pyruvate, final concentration, in assay buffer. The resazurin/diaphorase coupling reagent was 0.037 mM resazurin and 0.133 milligrams per milliliter (mg/mL) diaphorase, final concentration, in assay buffer. The inhibition of LDHA activity was measured by fluorescence emission. […]
On to `NS(=O)(=O)c1ccc(Cc2c(-c3ccc(F)c(C4=CCC(C(F)(F)F)CC4)c3)nn(-c3nc(C(=O)O)cs3)c2CC2CC2)cc1F` (stereo not drawn) [Compound 102, 2-(5-(cyclopropylmethyl)-3-(6-fluoro-4′-(trifluoromethyl)-2′,3′,4′,5′-tetrahydro-[1,1′-biphenyl]-3-yl)-4-(3-fluoro-4-sulfamoylbenzyl)-1H-pyrazol-1-yl)thiazole-4-carboxylic acid], for which the IC50 is less than 100 nM.

The molecule `NS(=O)(=O)c1ccc(Cc2c(-c3ccc(F)c(C4=Cc5ccccc5C4)c3)nn(-c3nc(C(=O)O)cs3)c2CC2CC2)cc1F` [Compound 105, 2-(5-(cyclopropylmethyl)-3-(4-fluoro-3-(1H-inden-2-yl)phenyl)-4-(3-fluoro-4-sulfamoylbenzyl)-1H-pyrazol-1-yl)thiazole-4-carboxylic acid] came in with an IC50 of less than 100 nM.

Turning to `NS(=O)(=O)c1ccc(Cc2c(-c3ccc(F)c(C4=CCC(F)(F)CC4)c3)nn(-c3nc(C(=O)O)cs3)c2CC2CC2)cc1F` [Compound 107, 2-(5-(cyclopropylmethyl)-4-(3-fluoro-4-sulfamoylbenzyl)-3-(4′,4′,6-trifluoro-2′,3′,4′,5′-tetrahydro-[1,1′-biphenyl]-3-yl)-1H-pyrazol-1-yl)thiazole-4-carboxylic acid], the IC50 was less than 100 nM.

`NS(=O)(=O)c1ccc(Cc2c(-c3ccc(F)c(C4=CCC5(CC4)CC5)c3)nn(-c3nc(C(=O)O)cs3)c2CC2CC2)cc1F` [Compound 108, 2-(5-(cyclopropylmethyl)-3-(4-fluoro-3-(spiro[2.5]oct-5-en-6-yl)phenyl)-4-(3-fluoro-4-sulfamoylbenzyl)-1H-pyrazol-1-yl)thiazole-4-carboxylic acid]: the IC50 is less than 100 nM.

Molecule `CCC#Cc1cc(-c2nn(-c3nc(C(=O)O)cs3)c(CC3CC3)c2Cc2ccc([S+](N)(=O)[O-])c(F)c2)ccc1F` [Compound 109, 2-(3-(3-(but-1-yn-1-yl)-4-fluorophenyl)-5-(cyclopropylmethyl)-4-(3-fluoro-4-sulfamoylbenzyl)-1H-pyrazol-1-yl)thiazole-4-carboxylic acid] yielded an IC50 of less than 100 nM.

`Cc1ccc(C2CC(c3cccc(-c4nn(-c5nc(C(=O)O)cs5)c(CC5CC5)c4Cc4ccc(S(N)(=O)=O)c(F)c4)c3)C2)s1` (stereo not drawn) [Compound 133, 2-(5-(cyclopropylmethyl)-4-(3-fluoro-4-sulfamoylbenzyl)-3-(3-(3-(5-methylthiophen-2-yl)cyclobutyl)phenyl)-1H-pyrazol-1-yl)thiazole-4-carboxylic acid] came in with an IC50 of less than 100 nM.

`Cc1ccc(C#Cc2cccc(-c3nn(-c4nc(C(=O)O)cs4)c(C4CC4C4CC4)c3Cc3ccc(S(N)(=O)=O)c(F)c3)c2)s1` (stereo not drawn) [Compound 134, 2-(5-([1,1′-bi(cyclopropan)]-2-yl)-4-(3-fluoro-4-sulfamoylbenzyl)-3-(3-((5-methylthiophen-2-yl)ethynyl)phenyl)-1H-pyrazol-1-yl)thiazole-4-carboxylic acid] returned an IC50 of 100 to 1000 nM.

The molecule `NS(=O)(=O)c1ccc(Cc2c(-c3ccc(F)c(-c4ccc(F)c(F)c4)c3)nn(-c3nc(C(=O)O)cs3)c2CC2CC2)cc1F` [Compound 136, 2-(5-(cyclopropylmethyl)-4-(3-fluoro-4-sulfamoylbenzyl)-3-(3′,4′,6-trifluoro-[1,1′-biphenyl]-3-yl)-1H-pyrazol-1-yl)thiazole-4-carboxylic acid] registered an IC50 of less than 100 nM.

In the case of `NS(=O)(=O)c1ccc(Cc2c(-c3ccc(F)c(-c4ccc(C(F)(F)F)cc4)c3)nn(-c3nc(C(=O)O)cs3)c2CC2CC2)cc1F` [Compound 138, 2-(5-(cyclopropylmethyl)-3-(6-fluoro-4′-(trifluoromethyl)-[1,1′-biphenyl]-3-yl)-4-(3-fluoro-4-sulfamoylbenzyl)-1H-pyrazol-1-yl)thiazole-4-carboxylic acid], the IC50 is less than 100 nM.

In turn, `NS(=O)(=O)c1ccc(Cc2c(-c3ccc(F)c(-c4ccc(Cl)cc4)c3)nn(-c3nc(C(=O)O)cs3)c2CC2CC2)cc1F` [Compound 139, 2-(3-(4′-chloro-6-fluoro-[1,1′-biphenyl]-3-yl)-5-(cyclopropylmethyl)-4-(3-fluoro-4-sulfamoylbenzyl)-1H-pyrazol-1-yl)thiazole-4-carboxylic acid] displayed an IC50 of less than 100 nM.

Molecule `CC(C)c1ccc(-c2cc(-c3nn(-c4nc(C(=O)O)cs4)c(CC4CC4)c3Cc3ccc(S(N)(=O)=O)c(F)c3)ccc2F)cc1` [Compound 142, 2-(5-(cyclopropylmethyl)-3-(6-fluoro-4′-isopropyl-[1,1′-biphenyl]-3-yl)-4-(3-fluoro-4-sulfamoylbenzyl)-1H-pyrazol-1-yl)thiazole-4-carboxylic acid] gave an IC50 of 100 to 1000 nM.

As to `NS(=O)(=O)c1ccc(Cc2c(-c3ccc(F)c(-c4ccc5c(c4)CCCC5)c3)nn(-c3nc(C(=O)O)cs3)c2CC2CC2)cc1F` [Compound 143, 2-(5-(cyclopropylmethyl)-3-(4-fluoro-3-(5,6,7,8-tetrahydronaphthalen-2-yl)phenyl)-4-(3-fluoro-4-sulfamoylbenzyl)-1H-pyrazol-1-yl)thiazole-4-carboxylic acid], the IC50 is less than 100 nM.

Consider `NS(=O)(=O)c1ccc(Cc2c(-c3ccc(F)c(-c4ccc(Cl)c(F)c4)c3)nn(-c3nc(C(=O)O)cs3)c2CC2CC2)cc1F` [Compound 144, 2-(3-(4′-chloro-3′,6-difluoro-[1,1′-biphenyl]-3-yl)-5-(cyclopropylmethyl)-4-(3-fluoro-4-sulfamoylbenzyl)-1H-pyrazol-1-yl)thiazole-4-carboxylic acid], for which the IC50 is less than 100 nM.

The molecule `NS(=O)(=O)c1ccc(Cc2c(-c3cccc(C(=O)N4CCCC4)c3)nn(-c3nc(C(=O)O)cs3)c2CC2CC2)cc1` [Compound 145, 2-(5-(cyclopropylmethyl)-3-(3-(pyrrolidine-1-carbonyl)phenyl)-4-(4-sulfamoylbenzyl)-1H-pyrazol-1-yl)thiazole-4-carboxylic acid] registered an IC50 of less than 100 nM.

`NS(=O)(=O)c1ccc(Cc2c(-c3ccc(F)c(C4=CCCCC4)c3)nn(-c3nc(C(=O)O)cs3)c2CC2CC2)cc1F` [Compound 146, 2-(5-(cyclopropylmethyl)-3-(6-fluoro-2′,3′,4′,5′-tetrahydro-[1,1′-biphenyl]-3-yl)-4-(3-fluoro-4-sulfamoylbenzyl)-1H-pyrazol-1-yl)thiazole-4-carboxylic acid] had an IC50 of less than 100 nM.

On to `CC(C)(C)NC(=O)c1cc(-c2nn(-c3nc(C(=O)O)cs3)c(CC3CC3)c2Cc2ccc([S+](N)(=O)[O-])c(F)c2)ccc1F` [Compound 147, 2-(3-(3-(tert-butylcarbamoyl)-4-fluorophenyl)-5-(cyclopropylmethyl)-4-(3-fluoro-4-sulfamoylbenzyl)-1H-pyrazol-1-yl) thiazole-4-carboxylic acid], for which the IC50 is less than 100 nM.

Turning to `NS(=O)(=O)c1ccc(Cc2c(-c3ccc(F)c(-c4cccc(Cl)c4)c3)nn(-c3nc(C(=O)O)cs3)c2CC2CC2)cc1F` [Compound 149, 2-(3-(3′-chloro-6-fluoro-[1,1′-biphenyl]-3-yl)-5-(cyclopropylmethyl)-4-(3-fluoro-4-sulfamoylbenzyl)-1H-pyrazol-1-yl)thiazole-4-carboxylic acid], the IC50 was less than 100 nM.

With `N[S+](=O)([O-])c1ccc(Cc2c(-c3ccc(F)c(C(=O)N4CCCC4)c3)nn(-c3nc(C(=O)O)cs3)c2CC2CC2)cc1F` [Compound 154], the IC50 is less than 100 nM.

By IC50 is commonly meant the midpoint of a concentration-inhibition curve. A lower IC50 goes with inhibition by little substance.
